This is an account of results in patent US9913843B2, “Protein kinase C inhibitors and uses thereof” (Rigel Pharmaceuticals, Inc., priority 2012, dated 2018).

Where two headings read alike, the source gives them in different places. A value given as a limit tells only on which side of the number the result lay.

The subject of this experiment is PKC mediated IL-2 production in human primary T cells. The experiment in a line: IL-2 ELISA, human primary T cell, anti CD3+CD28+ (whole cell functional assay for PKC mediated IL-2 production). In kind it is cell-based. In short, it runs like this: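 IL-2 in supernatants was quantified by ELISA after 24 h at 37 °C. Before stimulation with plate-coated anti-CD3 (1 μg/ml) and anti-CD28 (5 μg/ml), T cells expanded from PBMC were exposed to compound for 1 h; the counter-screen replaced antibodies with PMA 0.5 ng/ml and ionomycin 0.1 μM (final).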

[1] abbreviates: 24 h, human primary T cells stimulated with anti-CD3 + anti-CD28, IL-2 by ELISA, read-out: IC50 for blocking IL-2 production.
Where [2] appears, read: human primary T cells stimulated with anti-CD3 + anti-CD28, 24 h, IL-2 by ELISA, 8 pt, read-out: IL2 ELISA, Human primary T cell, anti-CD3 + CD28, 8 pt (IC50).

Turning to `Cn1nnn(-c2cc(Nc3ncc(F)c(NC[C@@H]4CCCN5CCCC[C@H]45)n3)c(F)cc2OC(C)(C)CO)c1=O` [Compound 148, 1-(4-fluoro-5-((5-fluoro-4-((((1S,9aR)-octahydro-2H-quinolizin-1-yl)methyl)amino)pyrimidin-2-yl)amino)-2-((1-hydroxy-2-methylpropan-2-yl)oxy)phenyl)-4-methyl-1,4-dihydro-5H-tetrazol-5-one], the IC50 is under 30000 nM under setting [1] and 1590 nM under setting [2].

Take `Fc1ccc(-n2nnnc2C2CC2)cc1Nc1ncc(F)c(NC[C@@H]2CCCN3CCCC[C@H]23)n1` [Compound 45, N2-(5-(5-cyclopropyl-1H-tetrazol-1-yl)-2-fluorophenyl)-5-fluoro-N4-(((1S,9aR)-octahydro-1H-quinolizin-1-yl)methyl)pyrimidine-2,4-diamine]: the IC50 under setting [1] is under 30000 nM and the IC50 under setting [2] was found to be 224 nM. `Cn1nnn(-c2cc(Nc3ncc(F)c(NC[C@@H]4CCCN5CCCC[C@H]45)n3)c(F)cc2OCC(C)(C)O)c1=O` [Compound 154, 1-(4-fluoro-5-((5-fluoro-4-((((1S,9aR)-octahydro-2H-quinolizin-1-yl)methyl)amino)pyrimidin-2-yl)amino)-2-(2-hydroxy-2-methylpropoxy)phenyl)-4-methyl-1,4-dihydro-5H-tetrazol-5-one]: the concentration for half-maximal inhibition (IC50) is under 30000 nM under setting [1] and 188 nM under setting [2]. Regarding `Cc1ccc(Nc2ncc(C(F)(F)F)c(NC[C@@H]3CCCN4CCCC[C@H]34)n2)cc1C#N` [Compound 108, 5-(4-(((1S,9aR)-octahydro-1H-quinolizin-1-yl)methylamino)-5-(trifluoromethyl)pyrimidin-2-ylamino)-2-methylbenzonitrile], the IC50 under setting [1] is under 30000 nM.

As to `COc1cnc(Nc2cccc(C#N)c2)nc1NC[C@@H]1CCCN2CCCC[C@H]12` [Compound 79, 3-(4-(((1S,9aR)-octahydro-1H-quinolizin-1-yl)methylamino)-5-methoxypyrimidin-2-ylamino)benzonitrile], the 50% inhibitory concentration (IC50) runs as follows: under setting [1], under 30000 nM; under setting [2], 5350 nM. On the same counts, the results for `Cc1nnnn1-c1ccc(F)c(Nc2ncc(C#N)c(NC[C@@H]3CCCN4CCCC[C@H]34)n2)c1` [Compound 118, 4-(((1S,9aR)-octahydro-1H-quinolizin-1-yl)methylamino)-2-(2-fluoro-5-(5-methyl-1H-tetrazol-1-yl)phenylamino)pyrimidine-5-carbonitrile] are under 30000 nM and 76 nM. Consider `CC1(C)Oc2cc(Nc3ncc(F)c(NC[C@@H]4CCCN5CCCC[C@H]45)n3)ccc2N(CCCF)C1=O` [Compound 25, 7-(4-(((1S,9aR)-octahydro-1H-quinolizin-1-yl)methylamino)-5-fluoropyrimidin-2-ylamino)-4-(3-fluoropropyl)-2,2-dimethyl-2H-benzo[b][1,4]oxazin-3(4H)-one], for which the concentration for half-maximal inhibition (IC50) by setting is: under setting [1], under 30000 nM; under setting [2], 853 nM. Take `CC1(C)Oc2cc(Nc3ncc(F)c(NC[C@@H]4CCCN5CCCC[C@H]45)n3)cnc2N(CC2CC2)C1=O` [Compound 31, 7-(4-(((1S,9aR)-octahydro-1H-quinolizin-1-yl)methylamino)-5-fluoropyrimidin-2-ylamino)-4-(cyclopropylmethyl)-2,2-dimethyl-2H-pyrido[3,2-b][1,4]oxazin-3(4H)-one]: the IC50 by setting is: under setting [1], under 30000 nM; under setting [2], 359 nM. For the molecule `COc1cc(Nc2ncc(C(F)(F)F)c(NC[C@@H]3CCCN4CCCC[C@H]34)n2)cc(-n2nnnc2C)c1` [Compound 106, 5-(trifluoromethyl)-N4-(((1S,9aR)-octahydro-1H-quinolizin-1-yl)methyl)-N2-(3-methoxy-5-(5-methyl-1H-tetrazol-1-yl)phenyl)pyrimidine-2,4-diamine], the IC50 was under 30000 nM under setting [1] and 21500 nM under setting [2].

Take `Cc1cnc(Nc2ccc(F)c(-n3nnnc3C)c2)nc1NC[C@@H]1CCCN2CCCC[C@H]12` [Compound 62, N2-(4-fluoro-3-(5-methyl-1H-tetrazol-1-yl)phenyl)-N4-(((1S,9aR)-octahydro-1H-quinolizin-1-yl)methyl)-5-methylpyrimidine-2,4-diamine]: the 50% inhibitory concentration (IC50) runs as follows: under setting [1], under 30000 nM; under setting [2], 1870 nM. Consider `Cc1nnnn1-c1cc(Nc2ncc(C(N)=O)c(NC[C@@H]3CCCN4CCCC[C@H]34)n2)ccc1F` [Compound 126, 4-(((1S,9aR)-octahydro-1H-quinolizin-1-yl)methylamino)-2-(4-fluoro-3-(5-methyl-1H-tetrazol-1-yl)phenylamino)pyrimidine-5-carboxamide], for which the IC50 is under 30000 nM under setting [1] and 1600 nM under setting [2]. The like results for `COc1cc(Nc2ncc(Cl)c(NC[C@@H]3CCCN4CCCC[C@H]34)n2)cc(-n2nnnc2C)c1` [Compound 38, 5-chloro-N4-(((1S,9aR)-octahydro-1H-quinolizin-1-yl)methyl)-N2-(3-methoxy-5-(5-methyl-1H-tetrazol-1-yl)phenyl)pyrimidine-2,4-diamine] were, in that order, under 30000 nM and 126 nM. For the molecule `N#Cc1cc(Nc2ncc(C(F)(F)F)c(NC[C@@H]3CCCN4CCCC[C@H]34)n2)c(F)cc1C1CC1` [Compound 110, 5-(4-(((1S,9aR)-octahydro-1H-quinolizin-1-yl)methylamino)-5-(trifluoromethyl)pyrimidin-2-ylamino)-2-cyclopropyl-4-fluorobenzonitrile], the IC50 by setting is: under setting [1], under 30000 nM; under setting [2], 10700 nM. On the same counts, the results for `Cn1nnn(-c2cc(Nc3ncc(C#N)c(NC[C@@H]4CCCN5CCCC[C@H]45)n3)c(F)cc2OCC(O)CO)c1=O` (stereo partly drawn) [Compound 132, 2-((4-(2,3-dihydroxypropoxy)-2-fluoro-5-(4-methyl-5-oxo-4,5-dihydro-1H-tetrazol-1-yl)phenyl)amino)-4-((((1S,9aR)-octahydro-2H-quinolizin-1-yl)methyl)amino)pyrimidine-5-carbonitrile] are under 30000 nM and 1240 nM. For the molecule `Cc1nnnn1-c1ccc(F)c(Nc2ncc(Cl)c(NC[C@@H]3CCCN4CCCC[C@H]34)n2)c1` [Compound 36, 5-chloro-N2-(2-fluoro-5-(5-methyl-1H-tetrazol-1-yl)phenyl)-N4-(((1S,9aR)-octahydro-1H-quinolizin-1-yl)methyl)pyrimidine-2,4-diamine], the concentration for half-maximal inhibition (IC50) under setting [1] is under 30000 nM and the IC50 under setting [2] amounted to 112 nM. For the molecule `COCCOc1cc(F)c(Nc2ncc(C#N)c(NC[C@@H]3CCCN4CCCC[C@H]34)n2)cc1-n1nnn(C)c1=O` [Compound 129, 2-((2-fluoro-4-(2-methoxyethoxy)-5-(4-methyl-5-oxo-4,5-dihydro-1H-tetrazol-1-yl)phenyl)amino)-4-((((1S,9aR)-octahydro-2H-quinolizin-1-yl)methyl)amino)pyrimidine-5-carbonitrile], the concentration for half-maximal inhibition (IC50) under setting [1] is under 30000 nM and the 50% inhibitory concentration (IC50) under setting [2] amounted to 1340 nM.

`Fc1cnc(Nc2ccc(N3CCOCC3)c(C(F)(F)F)c2)nc1NC[C@@H]1CCCN2CCCC[C@H]12` [Compound 19, 5-fluoro-N2-(3-(trifluoromethyl)-4-morpholinophenyl)-N4-(((1S,9aR)-octahydro-1H-quinolizin-1-yl)methyl)pyrimidine-2,4-diamine]: the IC50 runs as follows: under setting [1], under 30000 nM; under setting [2], 554 nM. As to `N#Cc1cnc(Nc2ccc(Cl)c(-n3nnnc3C3CC3)c2)nc1NC[C@@H]1CCCN2CCCC[C@H]12` [Compound 124, 4-(((1S,9aR)-octahydro-1H-quinolizin-1-yl)methylamino)-2-(4-chloro-3-(5-cyclopropyl-1H-tetrazol-1-yl)phenylamino)pyrimidine-5-carbonitrile], the half-inhibitory concentration (IC50) by setting is: under setting [1], under 30000 nM; under setting [2], 3.1 nM.

As for `Cc1ccc(Nc2ncc(C#N)c(NC[C@@H]3CCCN4CCCC[C@H]34)n2)cc1C#N` [Compound 119, 4-(((1S,9aR)-octahydro-1H-quinolizin-1-yl)methylamino)-2-(3-cyano-4-methylphenylamino)pyrimidine-5-carbonitrile], the half-inhibitory concentration (IC50) by setting is: under setting [1], under 30000 nM; under setting [2], 35.7 nM.

As to `COc1cc(Nc2nccc(NC[C@@H]3CCCN4CCCC[C@H]34)n2)cc(-n2nnnc2C)c1` [Compound 52, N4-(((1S,9aR)-octahydro-1H-quinolizin-1-yl)methyl)-N2-(3-methoxy-5-(5-methyl-1H-tetrazol-1-yl)phenyl)pyrimidine-2,4-diamine], the IC50 was under 30000 nM under setting [1] and 442 nM under setting [2]. As for `N#Cc1cccc(Nc2ncc(Cl)c(NC[C@@H]3CCCN4CCCC[C@H]34)n2)c1` [Compound 39, 3-(4-(((1S,9aR)-octahydro-1H-quinolizin-1-yl)methylamino)-5-chloropyrimidin-2-ylamino)benzonitrile], the IC50 is, setting by setting: under setting [1], under 30000 nM; under setting [2], 418 nM. With `O=S1(=O)CCCN1c1cc(Nc2ncc(F)c(NC[C@@H]3CCCN4CCCC[C@H]34)n2)ccc1F` [Compound 24, N2-[3-(1,1-dioxo-isothiazolidin-2-yl)-4-fluoro-phenyl]-5-fluoro-N4-(((1S,9aR)-octahydro-1H-quinolizin-1-yl)methyl)-pyrimidine-2,4-diamine], the IC50 reads like this: under setting [1], under 30000 nM; under setting [2], 3450 nM. The like results for `Cc1ccc(Nc2ncc(C#N)c(NC[C@@H]3CCCN4CCCC[C@H]34)n2)cc1-n1cnnn1` [Compound 117, 4-(((1S,9aR)-octahydro-1H-quinolizin-1-yl)methylamino)-2-(4-methyl-3-(1H-tetrazol-1-yl)phenylamino)pyrimidine-5-carbonitrile] were, in that order, under 30000 nM and 11.7 nM. The like results for `N#Cc1cnc(Nc2ccc(F)c(-n3nnnc3C3CC3)c2)nc1NC[C@@H]1CCCN2CCCC[C@H]12` [Compound 122, 4-(((1S,9aR)-octahydro-1H-quinolizin-1-yl)methylamino)-2-(3-(5-cyclopropyl-1H-tetrazol-1-yl)-4-fluorophenylamino)pyrimidine-5-carbonitrile] were, in that order, under 30000 nM and 20.6 nM.
